Data from ChEMBL document CHEMBL1152592, “Design, synthesis and biological evaluations of novel 7-[3-(1-aminocycloalkyl)pyrrolidin-1-yl]-6-desfluoro-8-methoxyquinolones with potent antibacterial activity against multi-drug resistant Gram-positive bacteria” (Bioorg Med Chem, 2009).
In brackets after ≈: the same amount, converted by molar mass.

Tests used:
Pseudomonas aeruginosa = assay: Antibacterial activity against Pseudomonas aeruginosa PAO1 after 18 hrs by twofold microbroth dilution method; type: functional; settings: PAO1, 18 h
Staphylococcus aureus [1] = assay: Selectivity ratio of IC50 for Staphylococcus aureus DNA topoisomerase 4 Ser80Phe mutant to IC50 for Staphylococcus aureus wild type DNA topoisomerase 4
DNA gyrase = DNA gyrase (Staphylococcus aureus, UniProt P0A0K8+P20831); assay: Inhibition of Staphylococcus aureus wild type DNA gyrase; type: protein-complex assay
Streptococcus pneumoniae [2] = assay: Antibacterial activity against Streptococcus pneumoniae J-24 after 18 hrs by twofold microbroth dilution method; type: functional; settings: J-24, 18 h
Enterococcus faecium = assay: Antibacterial activity against vancomycin-resistant Enterococcus faecium after 18 hrs by twofold microbroth dilution method; type: functional
Staphylococcus aureus [3] = assay: Antibacterial activity against levofloxacin, methicillin-resistant Staphylococcus aureus after 18 hrs by twofold microbroth dilution method; type: functional
Klebsiella pneumoniae = assay: Antibacterial activity against Klebsiella pneumoniae type 2 after 18 hrs by twofold microbroth dilution method; type: functional; settings: type 2, 18 h
Enterococcus faecalis [4] = assay: Antibacterial activity against Enterococcus faecalis ATCC 19433 after 18 hrs by twofold microbroth dilution method; type: functional; settings: ATCC19433, 18 h
[5] = Inhibition of Staphylococcus aureus DNA topoisomerase 4 Ser80Phe mutant
Streptococcus pyogenes = assay: Antibacterial activity against Streptococcus pyogenes G-36 after 18 hrs by twofold microbroth dilution method; type: functional; settings: G-36, 18 h
[6] = test system: Staphylococcus epidermidis; assay: Antibacterial activity against Staphylococcus epidermidis 56500 after 18 hrs by twofold microbroth dilution method; type: functional; settings: Staphylococcus epidermidis, 56500, 18 h
Enterococcus faecalis [7] = assay: Antibacterial activity against vancomycin-resistant Enterococcus faecalis after 18 hrs by twofold microbroth dilution method; type: functional
Staphylococcus aureus [8] = assay: Antibacterial activity against Staphylococcus aureus FDA 209-P after 18 hrs by twofold microbroth dilution method; type: functional
Streptococcus mitis = assay: Antibacterial activity against Streptococcus mitis IID685 after 18 hrs by twofold microbroth dilution method; type: functional; settings: IID685, 18 h
Staphylococcus aureus [9] = assay: Selectivity ratio of IC50 for Staphylococcus aureus DNA gyrase Ser84Leu mutant to IC50 for Staphylococcus aureus wild type DNA gyrase
Escherichia coli = assay: Antibacterial activity against Escherichia coli NIHJ after 18 hrs by twofold microbroth dilution method; type: functional
Staphylococcus aureus [10] = assay: Antibacterial activity against ciprofloxacin, methicillin-resistant Staphylococcus aureus after 18 hrs by twofold microbroth dilution method; type: functional
DNA gyrase subunit A = DNA gyrase subunit A (Staphylococcus aureus, UniProt P20831, S84L); assay: Inhibition of Staphylococcus aureus DNA gyrase Ser84Leu mutant
[11] = Inhibition of Staphylococcus aureus wild type DNA topoisomerase 4
Streptococcus pneumoniae [12] = assay: Antibacterial activity against penicillin-intermediate resistant Streptococcus pneumoniae after 18 hrs by twofold microbroth dilution method; type: functional
[13] = Aqueous […] of the compound; type: physicochemical; settings: aqueous (not further specified)
Mus musculus [14] = assay: Toxicity in Slc:ddY mouse at 100 mg/kg, iv; type: organism-based; set-up: dose 100 mg/kg, route intravenous; settings: in vivo
Mus musculus [15] = assay: Toxicity in Slc:ddY mouse assessed as micronucleated reticulocyte in blood at 100 mg/kg, iv after 48 hrs of treatment by fluorescence microscopy; type: organism-based; set-up: dose 100 mg/kg, route intravenous; settings: in vivo
Mus musculus [16] = assay: Toxicity in Slc:ddY mouse assessed as micronucleated reticulocyte in blood at 50 mg/kg, iv after 48 hrs of treatment by fluorescence microscopy; type: organism-based; set-up: dose 50 mg/kg, route intravenous; settings: in vivo
Mus musculus [17] = assay: Toxicity in Slc:ddY mouse at 150 mg/kg, iv; type: organism-based; set-up: dose 150 mg/kg, route intravenous; settings: in vivo
Mus musculus [18] = assay: Toxicity in Slc:ddY mouse at 50 mg/kg, iv; type: organism-based; set-up: dose 50 mg/kg, route intravenous; settings: in vivo

Structure (SMILES)	MIC (Pseudomonas aeruginosa) [µg/mL]	MIC (Streptococcus pneumoniae [2]) [µg/mL]	MIC50 (Enterococcus faecium) [µg/mL]	MIC90 (Enterococcus faecium) [µg/mL]	MIC50 (Staphylococcus aureus [3]) [µg/mL]	MIC80 (Staphylococcus aureus [3]) [µg/mL]	MIC90 (Staphylococcus aureus [3]) [µg/mL]	MIC (Klebsiella pneumoniae) [µg/mL]	MIC (Enterococcus faecalis [4]) [µg/mL]	IC50 [5] [µg/mL]	MIC (Streptococcus pyogenes) [µg/mL]	MIC [6] [µg/mL]	MIC50 (Enterococcus faecalis [7]) [µg/mL]	MIC90 (Enterococcus faecalis [7]) [µg/mL]	MIC (Staphylococcus aureus [8]) [µg/mL]	MIC (Streptococcus mitis) [µg/mL]	MIC (Escherichia coli) [µg/mL]	MIC50 (Staphylococcus aureus [10]) [µg/mL]	MIC90 (Staphylococcus aureus [10]) [µg/mL]	IC50 [11] [µg/mL]	other results
C[C@H]1NCc2cc(-c3ccc4c(=O)c(C(=O)O)cn(C5CC5)c4c3OC(F)F)ccc21 [GARENOXACIN]	0.78 (≈ 1.83 µM)	0.025 (≈ 0.0586 µM)	8 (≈ 18.8 µM)	32 (≈ 75 µM)	2 (≈ 4.69 µM)	64 (≈ 150 µM)	64 (≈ 150 µM)	0.05 (≈ 0.117 µM)	0.2 (≈ 0.469 µM)	20.7 (≈ 48.5 µM)	0.1 (≈ 0.235 µM)	0.05 (≈ 0.117 µM)	4 (≈ 9.38 µM)	8 (≈ 18.8 µM)	0.025 (≈ 0.0586 µM)	0.05 (≈ 0.117 µM)	0.012 (≈ 0.0281 µM)	1 (≈ 2.35 µM)	32 (≈ 75 µM)	1.14 (≈ 2.67 µM)	Ratio IC50 (Staphylococcus aureus [1]): 18.2; IC50 (DNA gyrase): 8.42 µM; Ratio IC50 (Staphylococcus aureus [9]): > 143; IC50 (DNA gyrase subunit A): > 1200 µM; MIC50 (Streptococcus pneumoniae [12]): 0.12 µg/mL (≈ 0.281 µM); MIC90 (Streptococcus pneumoniae [12]): 0.12 µg/mL (≈ 0.281 µM)
C[C@H]1COc2c(N3CCN(C)CC3)c(F)cc3c(=O)c(C(=O)O)cn1c23.C[C@H]1COc2c(N3CCN(C)CC3)c(F)cc3c(=O)c(C(=O)O)cn1c23.O [LEVOFLOXACIN]					16	> 64	> 64			57.1										2.67	IC50 (DNA gyrase subunit A): > 1380 µM
O=C(O)c1cn(C2CC2)c2cc(N3CCNCC3)c(F)cc2c1=O [CIPROFLOXACIN]	0.05 (≈ 0.151 µM)	0.39 (≈ 1.18 µM)			> 64	> 64	> 64	0.025 (≈ 0.0754 µM)	0.78 (≈ 2.35 µM)	22.4 (≈ 67.6 µM)	1.56 (≈ 4.71 µM)	0.2 (≈ 0.604 µM)			0.05 (≈ 0.151 µM)	0.78 (≈ 2.35 µM)	≤ 0.003			1.24 (≈ 3.74 µM)	
CN[C@H](CC(C)C)C(=O)N[C@H]1C(=O)N[C@@H](CC(N)=O)C(=O)N[C@H]2C(=O)N[C@H]3C(=O)N[C@H](C(=O)N[C@H](C(=O)O)c4cc(O)cc(O)c4-c4cc3ccc4O)[C@H](O)c3ccc(c(Cl)c3)Oc3cc2cc(c3O[C@@H]2O[C@H](CO)[C@@H](O)[C@H](O)[C@H]2O[C@H]2C[C@](C)(N)[C@H](O)[C@H](C)O2)Oc2ccc(cc2Cl)[C@H]1O [VANCOMYCIN]			> 128	> 128	1 (≈ 0.69 µM)	1 (≈ 0.69 µM)	1 (≈ 0.69 µM)						> 128	> 128				1 (≈ 0.69 µM)	2 (≈ 1.38 µM)		MIC50 (Streptococcus pneumoniae [12]): 0.5 µg/mL (≈ 0.345 µM); MIC90 (Streptococcus pneumoniae [12]): 0.5 µg/mL (≈ 0.345 µM)
CNC1([C@@H]2CCN(c3ccc4c(=O)c(C(=O)O)cn([C@@H]5C[C@@H]5F)c4c3OC)C2)CC1	0.39 (≈ 0.939 µM)	0.006 (≈ 0.0144 µM)						0.05 (≈ 0.12 µM)	0.05 (≈ 0.12 µM)		0.012 (≈ 0.0289 µM)	0.012 (≈ 0.0289 µM)			≤ 0.003	0.003 (≈ 0.00722 µM)	0.006 (≈ 0.0144 µM)				solubility [13]: 161 µg/mL (≈ 388 µM); Activity (Mus musculus [14]): Non-toxic; Activity (Mus musculus [15]): Non-toxic
COc1c(N2CC[C@@H]([C@H](C)N)C2)ccc2c(=O)c(C(=O)O)cn(C3CC3)c12	0.2 (≈ 0.538 µM)	≤ 0.003			0.5 (≈ 1.35 µM)	8 (≈ 21.5 µM)	8 (≈ 21.5 µM)	0.1 (≈ 0.269 µM)	0.05 (≈ 0.135 µM)		0.012 (≈ 0.0323 µM)	0.006 (≈ 0.0162 µM)			≤ 0.003	0.006 (≈ 0.0162 µM)	0.012 (≈ 0.0323 µM)				solubility [13]: > 10000 µg/mL; Activity (Mus musculus [16]): Toxic; Activity (Mus musculus [17]): Toxic; Activity (Mus musculus [14]): Toxic; Activity (Mus musculus [18]): Non-toxic
COc1c(N2CC[C@@H](C3(N)CC3)C2)c(F)cc2c(=O)c(C(=O)O)cn([C@@H]3C[C@@H]3F)c12	0.2 (≈ 0.477 µM)	≤ 0.003						0.012 (≈ 0.0286 µM)	0.012 (≈ 0.0286 µM)		0.003 (≈ 0.00715 µM)	≤ 0.003			≤ 0.003	0.003 (≈ 0.00715 µM)	≤ 0.003				solubility [13]: 221 µg/mL (≈ 527 µM); Activity (Mus musculus [17]): Toxic; Activity (Mus musculus [14]): Toxic; Activity (Mus musculus [18]): Toxic
CC(=O)NC[C@H]1CN(c2ccc(N3CCOCC3)c(F)c2)C(=O)O1 [LINEZOLID]			2 (≈ 5.93 µM)	2 (≈ 5.93 µM)									2 (≈ 5.93 µM)	2 (≈ 5.93 µM)				1 (≈ 2.96 µM)	1 (≈ 2.96 µM)		MIC50 (Streptococcus pneumoniae [12]): 1 µg/mL (≈ 2.96 µM); MIC90 (Streptococcus pneumoniae [12]): 2 µg/mL (≈ 5.93 µM)
